Experimental data taken from the NIST ThermoML archive (doi:10.1021/je201014c).

Settings: 101.33 kPa, Liquid; for viscosity: Capillary tube (Ostwald / Ubbelohde) method; for mass density: Vibrating tube method

CN(C)C=O [dimethylformamide]
Settings | mass density [kg/m3] | viscosity [mPa·s]
283.15 K | 958.096 | 1.016
288.15 K | 953.346 | 0.9545
293.15 K | 948.584 | 0.8985
298.15 K | 943.817 | 0.8455
303.15 K | 939.042 | 0.799
308.15 K | 934.255 | 0.7553
313.15 K | 929.458 | 0.7172
318.15 K | 924.65 | 0.6826
